Test results published in US20230145868A1, “UREA INHIBITORS OF MICRO-RNA” (Board of Regents, The University of Texas System, priority 2020, published 2023).

Columns and labels:
[1] = Microsomal stability assay, rat; assay type: in vitro ADME; settings: 1 μM test compound, unit printed in b356 only
Protocol: (§1) The liver microsomal incubation mixture was composed of liver microsomes (with a concentration of 0.5 mg microsomal protein/ml), the test compound (1 μM), MgCl2 (3 mM), EDTA (1 mM) in potassium phosphate buffer (100 mM, pH 7.4). Control substrates used were Midazolam and Ketanserin. The reaction was initiated with the addition of an NADPH regeneration solution (1.3 mM NADPH) and maintained at 37° C. with shaking. At five sequential time points ranging from 0 to 45 min, aliquots of the mixture (50 μL) were removed and quenched with acetonitrile (100 μL) containing an internal standard control (imipramine) Samples were analyzed after vortexing and centrifugation by liquid chromatography-mass spectrometry (LC-MS/MS). The in vitro t1/2 was then calculated and clearance followed literature.

AGS gastric cell line = test: Annexin V/PI apoptosis assay by flow cytometry, AGS; assay type: cell-based, human; settings: up to 10 μM, 48 h
Protocol: In 6-well plates, 1×10^5 cells/mL were added into each well. After 24 h, sequential concentrations of DMSO and 4 based were administered and the plates were incubated for 48 h. The supernatant and adherent cells were collected and centrifugated. Each dose was done in triplicate, with each sample composing two wells. For apoptosis analysis, the supernatant was discarded after centrifugation and the pellet washed with PBS twice. Then, BD Annexin V-FITC/PI used to stain the cells for analysis via flow cytometry on the Gallios machine. For cell cycle analysis, after washing with PBS, cells were fixed with ethanol and incubated. They, were treated with RNase enzyme and analyzed.

[2] = Microsomal stability assay, human; assay type: in vitro ADME; settings: pH 7.4; human liver microsomes; 1 μM test compound; unit printed in b356 only
Protocol: as §1

[3] = system: U251 brain cancer cell line; test: Cell morphology; assay type: cell-based, human; settings: over the course of 48 h
[4] = system: miR-16, miR-28, miR-182, miR-10a, miR-21, miR-155; test: RT-qPCR of other micro-RNAs (selectivity); assay type: cell-based, human; settings: AGS and AsPC1 cell lines; normalized to U6
[5] = Microsomal stability assay, mouse; assay type: in vitro ADME; settings: 1 μM test compound, unit printed in b356 only
Protocol: as §1

LN229 cell line = test: MTS proliferation assay, LN229; assay type: cell-based, human; settings: 5 and 10 μM, beginning at 48 h of treatment
Protocol: IC50 dose-response curves were determined using the cell proliferation assay system. Briefly, 5,000 or 10,000 cells of each cell line were plated in 96-well microculture plates in replicates of either 4 or 6. When cells became adherent, either 5 or 10 sequentially decreasing doses of the small molecule miRNA inhibitor were diluted into new media and added to individual wells. After either 24 or 48 hours, of a tetrazolium salt such as MTS, MTT, or WST-8 was added to each well at the same time of day as treatment and incubated for either 2 or 3 h at 37° C. The OD, measuring at the appropriate wavelength for the dye, was read at on a microplate spectrophotometer.
Cell proliferation is determined using a colorimetric assay. A tetrazolium salt such as MTS, MTT, or WST-8 is reduced by dehydrogenase activities in cells to give a formazan dye, which is soluble in the tissue culture media. The amount of the formazan dye (generated by the activities of dehydrogenases in cells, and directly proportional to the number of living cells) is measured after 3 h of incubation. The OD is read at 450 nm on a microplate spectrophotometer and growth values (%) are calculated as (OD treated cells/OD untreated cells)×100. The experiments are performed in triplicate. […] The OD is read at 450/550 nm on a microplate spectrophotometer, after one to seven days of the treatment. […]

VEGF = test: Western blot, VEGF expression; assay type: cell-based, human; settings: LN229 and U251 brain cancer cell lines
Protocol: Proteins are collected from cultured cells and lysed with 10× Lysis Buffer (Cell Signaling) freshly supplemented with a complete protease inhibitor cocktail and phosphatase inhibitors (Sigma). Bradford assay is used to measure protein concentration. Proteins are separated by polyacrylamide gel (Bio-rad) electrophoresis and were transferred to a 0.2 μm nitrocellulose membrane (Bio-rad). Quantification of protein expression was conducted using the image analysis software ImageJ.

[6] = rat, liver microsomes, pH 7.4, rat liver microsomes
[7] = mouse, liver microsomes, pH 7.4, mouse liver microsomes

- CLint ([1]; rat liver microsomes): 41.1 mL/min/kg
- Half-life ([1]; rat liver microsomes): 1.01 h
- CLint scaled at 1 μM [1, 6]: 41 mL/min/kg
- half-life at 1 μM [1, 6]: 1 h
- CLint scaled at 1 μM [2]: 14.9 mL/min/kg
- half-life at 1 μM [2]: 1.93 h
- CLint ([5]; mouse liver microsomes): 58.9 mL/min/kg
- Half-life ([5]; mouse liver microsomes): 1.55 h
- CLint scaled at 1 μM [5, 7]: 58 mL/min/kg
- half-life at 1 μM [5, 7]: 1.53 h
Structure (SMILES): Cc1ccc(F)c(NC(=O)Nc2ccc(-c3cccc4cn[nH]c34)cc2)c1 [Example 4, 1-(4-(1H-indazol-7-yl)phenyl)-3-(2-fluoro-5-methylphenyl)urea]
- apoptotic cells (AGS gastric cell line): gradual increase
- morphology of the cells [3]: significant change in the morphology
- selectivity for miR-10b over other micro-RNAs [4]: selectivity of compound 4 for miR-10b becomes apparent
- proliferation (MTS), every 24 h over 96 h (LN229 cell line): significant difference in proliferation
- VEGF expression (Western blot) (VEGF): low to very slight variations
